Patent US8552002B2 (Novartis AG, priority 2004, dated 2013)
Where two headings read alike, the source gives them in different places.

Columns and labels:
Tek = target: T1, Tek (Homo sapiens, UniProt Q02763); experiment: Recombinant GST-Tek (Tie-2) tyrosine kinase assay (33P into poly(Glu,Tyr)); type: biochemical; details: Examples 1 to 169
T1 construct: amino acids 773-1124 of the cytoplasmic kinase domain of human Tek, N-terminally fused to GST; made in house; host or cells: Sf9 insect cells (baculovirus)
Method in brief: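 Read-out is filter-bound 33P in poly(Glu,Tyr) 4:1 (10 μg/mL) after 30 min at ambient temperature with 4.0 μM ATP. Enzyme: 150 ng human GST-Tek (aa 773-1124) from insect cells, in Tris pH 7.5 with Mn2+/Mg2+ and vanadate. IC50 fitted linearly over four concentrations, usually 0.01-10 μM.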

FGFR3 (K650E) = target: T2, FGFR3 (K650E) (Homo sapiens, UniProt P22607, K650E); experiment: Recombinant GST-FGFR-3-K650E tyrosine kinase assay (33P into poly(Glu,Tyr)); type: biochemical; details: read-out: FGFR3 (K650E) inhibition at 10 μM
T2 construct: amino acids 411-806 of the cytoplasmic domain of human FGFR-3, N-terminally fused to GST; made in house; host or cells: Sf9 insect cells (baculovirus)

KDR = target: T3, KDR (Homo sapiens, UniProt P35968); experiment: Inhibitory activity against KDR (VEGF-R2), in vitro data of Examples 170 and 207; type: biochemical; details: read-out: KDR inhibition at 10 μM
T3 construct: expressed in transfected cells; host or cells: CHO cells
Method in brief: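 KDR tyrosine phosphorylation detected by luminescence after overnight 4° C capture of 20 μg lysate protein with PY20:AP antibody. Lysates came from cells given compound for 2 h at 37° C, then final 20 ng/ml VEGF for 5 min; compound-free medium as control.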

T1 sequence (Q02763 773-1124): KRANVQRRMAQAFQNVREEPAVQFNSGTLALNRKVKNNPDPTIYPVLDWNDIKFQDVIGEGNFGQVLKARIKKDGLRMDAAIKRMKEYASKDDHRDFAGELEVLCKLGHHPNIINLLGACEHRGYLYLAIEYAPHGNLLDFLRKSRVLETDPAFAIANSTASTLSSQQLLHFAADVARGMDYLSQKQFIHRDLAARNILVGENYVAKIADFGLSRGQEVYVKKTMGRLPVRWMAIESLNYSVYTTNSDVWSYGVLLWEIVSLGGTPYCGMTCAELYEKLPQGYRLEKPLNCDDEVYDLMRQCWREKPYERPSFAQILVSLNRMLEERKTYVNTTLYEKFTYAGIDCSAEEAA
T2 sequence (P22607 411-806 K650E): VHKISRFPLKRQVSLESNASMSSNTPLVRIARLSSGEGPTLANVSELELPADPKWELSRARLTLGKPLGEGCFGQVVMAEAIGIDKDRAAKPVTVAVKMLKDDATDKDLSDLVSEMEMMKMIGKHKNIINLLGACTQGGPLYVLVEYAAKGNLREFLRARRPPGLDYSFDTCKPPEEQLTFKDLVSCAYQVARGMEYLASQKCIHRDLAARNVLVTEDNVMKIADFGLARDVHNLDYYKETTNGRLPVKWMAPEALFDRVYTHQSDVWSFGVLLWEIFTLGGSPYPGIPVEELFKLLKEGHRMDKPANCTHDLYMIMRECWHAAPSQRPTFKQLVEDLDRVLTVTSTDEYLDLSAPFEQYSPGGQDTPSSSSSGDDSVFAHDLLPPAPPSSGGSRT
T3 sequence (P35968 20-1356): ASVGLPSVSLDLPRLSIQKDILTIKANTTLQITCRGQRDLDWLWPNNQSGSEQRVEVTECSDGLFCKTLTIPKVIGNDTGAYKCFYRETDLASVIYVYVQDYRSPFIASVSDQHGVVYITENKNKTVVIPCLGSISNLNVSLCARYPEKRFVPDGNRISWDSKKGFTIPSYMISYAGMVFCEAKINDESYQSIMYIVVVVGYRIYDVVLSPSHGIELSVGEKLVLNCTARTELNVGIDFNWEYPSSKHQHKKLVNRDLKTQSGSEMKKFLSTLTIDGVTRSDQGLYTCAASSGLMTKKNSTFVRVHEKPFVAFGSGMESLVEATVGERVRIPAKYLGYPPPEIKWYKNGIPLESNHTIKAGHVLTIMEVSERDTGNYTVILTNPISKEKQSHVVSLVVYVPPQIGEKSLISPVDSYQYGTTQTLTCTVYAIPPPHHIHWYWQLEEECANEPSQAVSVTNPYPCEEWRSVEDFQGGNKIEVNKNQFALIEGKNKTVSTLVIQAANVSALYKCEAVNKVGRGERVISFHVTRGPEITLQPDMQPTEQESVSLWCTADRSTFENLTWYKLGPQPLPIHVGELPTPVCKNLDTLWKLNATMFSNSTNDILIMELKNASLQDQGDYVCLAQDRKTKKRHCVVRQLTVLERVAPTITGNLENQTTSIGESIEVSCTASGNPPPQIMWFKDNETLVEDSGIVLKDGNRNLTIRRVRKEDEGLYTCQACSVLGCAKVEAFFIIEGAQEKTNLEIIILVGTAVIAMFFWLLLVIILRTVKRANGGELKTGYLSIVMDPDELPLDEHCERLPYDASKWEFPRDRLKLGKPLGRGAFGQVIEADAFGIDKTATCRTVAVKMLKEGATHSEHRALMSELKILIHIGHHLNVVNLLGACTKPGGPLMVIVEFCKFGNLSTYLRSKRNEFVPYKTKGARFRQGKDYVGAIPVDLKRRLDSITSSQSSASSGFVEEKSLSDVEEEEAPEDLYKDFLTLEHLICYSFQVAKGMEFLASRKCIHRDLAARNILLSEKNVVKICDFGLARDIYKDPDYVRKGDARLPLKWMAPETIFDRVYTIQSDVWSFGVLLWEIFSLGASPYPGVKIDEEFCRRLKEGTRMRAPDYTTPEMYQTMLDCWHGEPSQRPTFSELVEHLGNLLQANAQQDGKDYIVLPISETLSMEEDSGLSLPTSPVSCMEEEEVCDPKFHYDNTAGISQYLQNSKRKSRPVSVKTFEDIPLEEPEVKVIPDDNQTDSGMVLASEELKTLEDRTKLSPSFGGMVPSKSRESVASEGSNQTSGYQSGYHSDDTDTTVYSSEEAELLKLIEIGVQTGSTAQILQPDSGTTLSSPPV

Row | Structure (SMILES) | melting point | inhibition at 10 µM (Tek) | inhibition at 10 µM (FGFR3 (K650E); 10 μM, Examples 1 to 169) | inhibition at 10 µM (KDR; 10 μM, Examples 1 to 169) | inhibition at 10 µM (FGFR3 (K650E)) | inhibition at 10 µM (KDR)
1 | CN1CCN(c2ccc(Nc3cc(NC(=O)Nc4c(Cl)cc(Cl)cc4Cl)ncn3)cc2)CC1 [Example 73, 1-{6-[4-(4-Methyl-piperazin-1-yl)-phenylamino]-pyrimidin-4-yl}-3-(2,4,6-trichloro-phenyl)-urea] | 209 to 211 °C | 12 to 100% | 27 to 100% | 67 to 100% | – | –
2 | CN1CCN(c2ccc(Nc3cc(NC(=O)Nc4cc(Cl)c(Cl)cc4Cl)ncn3)cc2)CC1 [Example 74, 1-{6-[4-(4-Methyl-piperazin-1-yl)-phenylamino]-pyrimidin-4-yl}-3-(2,4,5-trichloro-phenyl)-urea] | 252 to 254 °C | 12 to 100% | 27 to 100% | 67 to 100% | – | –
3 | CN1CCN(c2ccc(Nc3cc(NC(=O)Nc4ccc(Cl)c(Cl)c4)ncn3)cc2)CC1 [Example 75, 1-(3,4-Dichloro-phenyl)-3-{6-[4-(4-methyl-piperazin-1-yl)-phenylamino]-pyrimidin-4-yl}-urea] | 260 to 262 °C | 12 to 100% | 27 to 100% | 67 to 100% | – | –
4 | CN1CCN(c2ccc(N(C(=O)Nc3cccc(Cl)c3Cl)c3cc(N)ncn3)cc2)CC1 [Example 76, 1-(6-Amino-pyrimidin-4-yl}-3-(2,3-dichloro-phenyl)-1-[4-(4-methyl-piperazin-1-yl)-phenyl]-urea] | 280 to 282 °C | 12 to 100% | 27 to 100% | 67 to 100% | – | –
5 | CN1CCN(c2ccc(Nc3cc(NC(=O)Nc4cccc(Cl)c4Cl)ncn3)cc2)CC1 [Example 77, 1-(2,3-Dichloro-Phenyl)-3-{6-[4-(4-methyl-piperazin-1-yl)-phenylamino]-pyrimidin-4-yl}-urea] | 279 to 281 °C | 12 to 100% | 27 to 100% | 67 to 100% | – | –
6 | Cc1cccc(Cl)c1NC(=O)Nc1cc(Nc2cccc(OCC3CCN(C)CC3)c2)ncn1 [Example 79, 1-(2-Chloro-6-methyl-phenyl)-3-{6-[3-(1-methyl-piperidin-4-ylmethoxy)-phenylamino]-pyrimidin-4-yl}-urea] | 200 to 204 °C | 12 to 100% | 27 to 100% | 67 to 100% | – | –
7 | CN1CCC(COc2cccc(Nc3cc(NC(=O)Nc4c(Cl)cccc4Cl)ncn3)c2)CC1 [Example 80, 1-(2,6-Dichloro-Phenyl)-3-{6-[3-(1-methyl-piperidin-4-ylmethoxy)-phenylamino]-pyrimidin-4-yl}-urea] | 198 to 200 °C | 12 to 100% | 27 to 100% | 67 to 100% | – | –
8 | CN1CCC(COc2cccc(Nc3cc(NC(=O)Nc4c(Cl)cc(Cl)cc4Cl)ncn3)c2)CC1 [Example 81, 1-{6-[3-(1-Methyl-piperidin-4-ylmethoxy)-phenylamino]-pyrimidin-4-yl}-3-(2,4,6-trichloro-phenyl)-urea] | 222 to 225 °C | 12 to 100% | 27 to 100% | 67 to 100% | – | –
9 | Cc1cccc(Cl)c1NC(=O)Nc1cc(Nc2ccc(CN3CCN(C)CC3)cc2)ncn1 [Example 82, 1-(2-Chloro-6-methyl-phenyl)-3-{6-[4-(4-methyl-piperazin-1-ylmethyl)-phenylamino]-pyrimidin-4-yl}-urea] | 199 to 201 °C | 12 to 100% | 27 to 100% | 67 to 100% | – | –
10 | CN1CCN(Cc2ccc(Nc3cc(NC(=O)Nc4c(Cl)cccc4Cl)ncn3)cc2)CC1 [Example 83, 1-(2,6-Dichloro-Phenyl)-3-{6-[4-(4-methyl-piperazin-1-ylmethyl)-phenylamino]-pyrimidin-4-yl}-urea] | 199 to 201 °C | 12 to 100% | 27 to 100% | 67 to 100% | – | –
11 | CN1CCN(Cc2ccc(Nc3cc(NC(=O)Nc4c(Cl)cc(Cl)cc4Cl)ncn3)cc2)CC1 [Example 84, 1-{6-[4-(4-Methyl-piperazin-1-ylmethyl)-phenylamino]-pyrimidin-4-yl}-3-(2,4,6-trichloro-phenyl)-urea] | 194 to 196 °C | 12 to 100% | 27 to 100% | 67 to 100% | – | –
12 | CN1CCN(C(=O)c2ccc(Nc3cc(NC(=O)Nc4c(Cl)cc(Cl)cc4Cl)ncn3)cc2)CC1 [Example 85, 1-{6-[4-(4-Methyl-piperazin-1-carbonyl)-phenylamino]-pyrimidin-4-yl}-3-(2,4,6-trichloro-phenyl)-urea] | 165 to 175 °C | 12 to 100% | 27 to 100% | 67 to 100% | – | –
13 | CN1CCN(c2cccc(Nc3cc(NC(=O)Nc4c(Cl)cc(Cl)cc4Cl)ncn3)c2)CC1 [Example 86, 1-{6-[3-(4-Methyl-piperazin-1-yl)-phenylamino]-pyrimidin-4-yl}-3-(2,4,6-trichloro-phenyl)-urea] | 138 to 142 °C | 12 to 100% | 27 to 100% | 67 to 100% | – | –
14 | CC(C)(C)[Si](C)(C)O[C@H]1CC[C@H](Nc2cc(NC(=O)Nc3c(Cl)cc(Cl)cc3Cl)ncn2)CC1 [Example 87, 1-{6-[(trans)-4-(tert-Butyl-dimethyl-silanyloxy)-cyclohexylamino]-pyrimidin-4-yl}-3-(2,4,6-trichloro-phenyl)-urea] | 198 to 199 °C | 12 to 100% | – | – | 27 to 100% | 67 to 100%
15 | O=C(Nc1cc(N[C@H]2CC[C@H](O)CC2)ncn1)Nc1c(Cl)cc(Cl)cc1Cl [Example 88, 1-[6-((trans)-4-Hydroxy-cyclohexylamino)-pyrimidin-4-yl]-3-(2,4,6-trichloro-phenyl)-urea] | 171 to 173 °C | 12 to 100% | 27 to 100% | 67 to 100% | – | –
16 | Cc1cccc(Cl)c1NC(=O)Nc1cc(N[C@H]2CC[C@H](O[Si](C)(C)C(C)(C)C)CC2)ncn1 [Example 89, 1-{6-[(trans)-4-(tert-Butyl-dimethyl-silanyloxy)-cyclohexylamino]-pyrimidin-4-yl}-3-(2-chloro-6-methyl-phenyl)-urea] | 218 to 220 °C | 12 to 100% | – | – | 27 to 100% | 67 to 100%
17 | Cc1cccc(Cl)c1NC(=O)Nc1cc(N[C@H]2CC[C@H](O)CC2)ncn1 [Example 90, 1-(2-Chloro-6-methyl-phenyl)-3-[6-((trans)-4-hydroxy-cyclohexylamino)-pyrimidin-4-yl]-urea] | 149 to 152 °C | 12 to 100% | 27 to 100% | 67 to 100% | – | –
18 | CC(C)(C)[Si](C)(C)O[C@H]1CC[C@H](Nc2cc(NC(=O)Nc3c(Cl)cccc3Cl)ncn2)CC1 [Example 91, 1-{6-[(trans)-4-(tert-Butyl-dimethyl-silanyloxy)-cyclohexylamino]-pyrimidin-4-yl}3-(2,6-dichloro-phenyl)-urea] | 211 to 212 °C | 12 to 100% | – | – | 27 to 100% | 67 to 100%
